US11904057B2, “Nanoparticle-hydrogel composite for nucleic acid molecule delivery” (The United States of America, as represented by the …, priority 2018, dated 2024)

What was measured:
H2052 cells [1] = assay: Specificity of endocytosis inhibitors (Transferrin / Dextran uptake, flow cytometry); assay type: cell-based, human; details: Transferrin and Dextran (70 kD) markers, 1 h
Procedure: FIGS. 10A-10D. Determining the effect of chemical inhibitors on endocytic uptake of Transferrin and Dextran (70 kD), the markers for clathrin-dependent and macropinocytic pathways, in H2052 human mesothelioma cells. Flow cytometric histograms of cells treated with (FIG. 10A) Rhodamine-labeled Transferrin for 1 h in presence or absence of Cytochalasin D, Dynasore, EIPA and cells treated (FIG. 10B) with Rhodamine-labeled Transferrin for 1 h in presence or absence of Cytochalasin D, Dynasore, EIPA. Flow cytometric histograms of cells (FIG. 10C) treated with FITC-labeled Dextran and cells treated with FITC-labeled Dextran (FIG. 10D) for 1 h in presence or absence of Nystatin.
Flow cytometry. In vitro miRNA transfection efficiency of nanoparticles was determined using human mesothelioma cell H2052 (ATCC). For flow cytometry, 1.2×10^5 cells were seeded on 6 well plate 24 h before treatment and allowed to grow under normal culture conditions. FAM (6-carboxyfluorescein, 5′ end)-labeled scrambled miRNA (Thermo Fisher) was complexed with Peptide 1 in a 10:1 N/P ratio according to the protocol described above. Nanoparticles obtained were diluted with optiMEM (Thermo Fisher) to maintain a final miRNA concentration of 40 nM. Complexes of commercial transfection agents (In vivo jet PEI, Polyplus-transfection and DharmaFECT, Dharmacon) and equivalent amount of miRNA were prepared according to manufacturers' instruction. […] To determine the specificity of the inhibitors towards each endocytic pathway in H2052 cells, cellular internalization of Rhodamine or FITC-labeled Transferrin (marker for clathrin mediated uptake, Thermo Fisher) and Rhodamine or FITC-labeled Dextran (70 kD, marker for micropinocytosis, Thermo Fisher) in presence and absence of inhibitors were analyzed with flow cytometry. […] Median fluorescence intensity (MFI) for gated live cell population was determined for cells treated with each inhibitor and normalized with respect to the sample without inhibitor treatment.

[2] = test system: FAM-labeled scrambled miRNA; assay: Fluorescence-based binding assay between peptides and miRNA; details: 30 nM FAM-miRNA; peptide vs miRNA molar ratio 0.3125 to 1000; complexed in water, diluted with 25 mM HEPES pH 7.4
Procedure: Binding interactions among peptides and miRNA were studied using a fluorescence measurement. Scrambled miRNA (sequence mismatched with all possible mRNAs in human) labeled with FAM (6-carboxyfluorescein, 5′ end) was mixed with peptides having peptide vs miRNA molar ratio ranging from 0.3125 to 1000. Complexation was first performed in water, followed by dilution of the complex with HEPES (25 mM HEPES, pH 7.4) to keep pH of the suspension unaltered across all peptide concentrations. With increasing mole ratio, FAM fluorescence gradually gets quenched resulting from peptide-mediated condensation. […] Concentrations of Peptide 1 to induce maximum quenching were close to a molar ratio of 50:1 between Peptide 1 and miRNA which corresponds to an N/P ratio (charge ratio) of 10:1. Accordingly, a ratio of 10:1 as the N/P ratio was used for further assessment.
Fluorescence-based binding assay was used to determine interaction between peptides and miRNA. […] FAM fluorophore on miRNA was excited at 490 nm and emission at 520 nm was recorded using a microplate reader (Tecan Infinite 200) with a band-pass filter of 20 nm. A PTI fluorimeter was used to record fluorescence spectrum for Peptide 1/miRNA nanoparticles at N/P ratio 10:1 (molar ratio of 50:1, Peptide 1 vs miRNA) in the emission range of 500-700 nm.

[3] = Circular dichroism spectroscopy of Peptide 1 with miRNA / heparin; assay type: physicochemical
Procedure: Circular Dichroism Spectroscopy. Secondary structure of Peptide 1 in presence or absence of added miRNA was determined using Circular Dichroism (CD) spectroscopy. For recording CD spectra in water, 150 μL from the aqueous solutions of Peptide 1 was mixed with 150 μL of an aqueous solution of scrambled miRNA to maintain peptide vs miRNA N/P ratios at 10:1, 5:1, 2:1 and 1:1. These N/P ratios correspond to peptide vs miRNA mole ratios of 50:1, 25:1, 10:[…], respectively. Nanoparticles and soluble peptides of 300 μL total volume were equilibrated for 30 min at 37° C. with agitation. Final concentration of miRNA was maintained at 5 μM. Samples were transferred into a quartz cell of path-length 1 mm and data collection were initiated immediately. Ellipticity was measured over a wavelength range of 190-260 nm at 37° C., using 1 nm step size and a set of 3-5 scans. Raw data was corrected by subtracting the absorbance of samples from those of miRNA and converted to mean residue ellipticity using the equation: [θ]=θobs/(10*l*c*r) where θobs is the measured ellipticity (mdeg), l is the path length (0.1 cm), c is the concentration of peptide (determined from UV absorbance at 220 nm) and r corresponds to the number of amino acid residues in the peptide. […]

H2052 cells [4] = assay: LDH cytotoxicity assay; assay type: cell-based, human; details: 4 h post-incubation
Procedure: LDH assay kit (Roche) was used to determine any possible cytotoxicity of Peptide 1/miRNA nanoparticles and soluble Peptide 1. Cell supernatant was taken out after 4 h of treatment and a reaction mixture containing diaphorase/NAD+/iodotetrazolium chloride/sodium lactate was added following manufacturer's instructions to detect any released LDH (Lactate Dehydrogenase). Triton X-100 at a final concentration was used as a high control for maximal releasable LDH, while untreated cells were taken as low control for spontaneous LDH release. Absorbance was measured at 490 nm after 5 minutes of incubation at 37° C. Cytotoxicity was calculated using the equation: (Absorbance^treated−Absorbance^low control/Absorbance^high control−Absorbance^low control)×100.

[5] = Hydrogel composite formation with different hydrogelating peptides; assay type: physicochemical; details: 24 h post-assembly, irrespective of nanoparticle loaded
Procedure: Preparation and characterization of hydrogel composites. Required amount of miRNA was diluted in water and mixed with an aqueous solution of Peptide 1 in a 10:1 N/P ratio to maintain a final volume of 25 μL. The suspension was incubated for 30 min at 37° C. with constant agitation and the resulting nanoparticles were mixed with 25 μL of chilled 2×HBS (50 mM HEPES 300 mM NaCl, pH 7.4). 50 μL of 1% (w/v) solution of a hydrogelating peptide (Peptides 1, 2, 3 and 4) was prepared in a chilled 25 mM HEPES (pH 7.4), mixed with an equal volume of nanoparticle suspension and incubated at 37° C. for overnight to afford 0.5 wt % hydrogel composites. Gel composites containing 1% of hydrogelating peptide was also prepared similarly. For Transmission Electron Microscopy of gel composites, ˜4 μL of the sample was deposited onto 200 mesh carbon coated copper grids and allowed to adhere for 30 seconds. The excess sample was removed with a filter paper. Uranyl acetate (5 μL) was used to stain the grids for 30 seconds. Grids were dried for 2-3 minutes. Images were acquired using a Tecnai T12 transmission electron microscope.

| Compound | Endocytic pathway inhibited (H2052 cells [1]) | Extent of quenching of FAM fluorescence (peptide-mediated condensation of miRNA) [2] | other results |
| --- | --- | --- | --- |
| C=C1[C@@H](C)[C@H]2[C@H](Cc3ccccc3)NC(=O)[C@]23[C@H](OC(C)=O)/C=C/[C@@](C)(O)C(=O)[C@@H](C)C/C=C/[C@H]3[C@@H]1O [Cytochalasin D] | inhibitors for clathrin-dependent pathways |  |  |
| VLTKVKTKV^DPPTKVEVKVLV-NH2 [Peptide 3] |  | not able to promote significant condensation of miRNA |  |
| VKVKVKVKV^DPPTKVKVKVKV-NH2 [Peptide 1] |  | maximal | Folding into a β-hairpin structure in the nanoparticles ([3]; N/P ratio 10:1, water): not enough to induce any significant folding; Heparin concentration at which evolution of β-sheet structure starts ([3]; Peptide 1 complexed with miRNA at N/P 10:1, water, 37° C.): 50 µg/mL; Cytotoxicity as compared to positive control Triton X-100 (H2052 cells [4]): 20%; Formation of gel-like material when used as self-assembling peptide [5]: does not form a gel-like material |
| O=C(N/N=C/c1ccc(O)c(O)c1)c1cc2ccccc2cc1O [Dynasore] | inhibitors for clathrin-dependent pathways |  |  |
| CCN(c1nc(N)c(C(=O)NC(=N)N)nc1Cl)C(C)C [EIPA] | selective inhibitor of micropinocytosis |  |  |
